According to patent US10131707B2, “Treatment of sepsis and septic shock” (THE GENERAL HOSPITAL CORPORATION, priority 2014, dated 2018):
“Also recorded” adds a separate entry of the source. Read-outs that look alike come from different tables or passages of the source.

Legend:
[1] = system: mouse model of CLP-induced septic shock; experiment: Survival in CLP-induced sepsis model, inhibitors given intraperitoneally; assay type: in vivo, male C57BL/6J mice; details: for Survival (in words): i.p. 1 h after CLP, SAHA 50 mg/kg, Cl-amidine 80 mg/kg, up to 10 days, compared with DMSO vehicle
Experimental: Three experiments were carried out. In experiment I, HL-60 neutrophilic cells grown on a coverslip were treated with LPS (100 ng/ml) in the presence or absence of SAHA (5 […]]) for 3 h, and subjected to immuno-staining with anti-Cit H3 antibody to assess effect of SAHA on Cit H3 production under a fluorescence microscope. The ratio of Cit H3 positive cells was calculated as mean±SD (n=3). In experiment II, male C57BL/6J mice were subjected to CLP, and 1 hour later randomly divided into three groups for intraperitoneal injection as follows: (1) dimethyl sulfoxide (DMSO), (2) SAHA (50 mg/kg) in DMSO, and ([…]). In a separate experiment III, the male C57BL/6J mice were divided into control and treatment groups, and subjected to CLP. One hour later, immunoglobulin (IgG) and Cit H3 antibody (20 mg/kg iv; n=5/group) were injected into the control and treatment groups, respectively. All survival was monitored for 5-10 days.
Animals. Male C57B1/6J mice (6-8 weeks) weighing 25-30 g were purchased from Jackson Labs (Bar Harbor, Me.). All animals were housed in plastic cages and had access to chow and water throughout the experiment. They were kept at room temperature (24±2° C.) and exposed to alternative cycles of 12 h light and darkness. During the experiments the animals were monitored up to 10 days, and survival rate was compared between the experimental and control groups.
CLP-induced sepsis model. The CLP murine model,^15 modified as described previously, was used to induce fecal peritonitis.^16 In brief, peritoneal cavity was opened under inhaled isoflurane anesthesia. […]
Administration of inhibitors and experimental design. […] Mortality was recorded for up to 10 days post procedure.
Statistical analysis. Statistical differences were determined by Student t tests and ANOVA for two group and multiple group comparisons respectively (SPSS™ statistical software package, Chicago, Ill.). Kaplan-Meier survival curves were analyzed by using the MedCalc™ Statistical Software (Mariakerke, Belgium) for the in vivo studies. […]

HL-60 neutrophilic cells = experiment: LPS-induced Cit H3 production and NETs formation in HL-60 cells, immunostaining with anti-Cit H3 antibody; assay type: cell-based; details: LPS 100 ng/ml, 3 h
Experimental: Three experiments were carried out. In experiment I, HL-60 neutrophilic cells grown on a coverslip were treated with LPS (100 ng/ml) in the presence or absence of SAHA (5 […]]) for 3 h, and subjected to immuno-staining with anti-Cit H3 antibody to assess effect of SAHA on Cit H3 production under a fluorescence microscope. The ratio of Cit H3 positive cells was calculated as mean±SD (n=3). In experiment II, male C57BL/6J mice were subjected to CLP, and 1 hour later randomly divided into three groups for intraperitoneal injection as follows: (1) dimethyl sulfoxide (DMSO), (2) SAHA (50 mg/kg) in DMSO, and (3) Cl-amidine ([…]) in DMSO (n=10/group). In a separate experiment III, the male C57BL/6J mice were divided into control and treatment groups, and subjected to CLP. One hour later, immunoglobulin (IgG) and Cit H3 antibody (20 mg/kg iv; n=5/group) were injected into the control and treatment groups, respectively. All survival was monitored for 5-10 days.
Cell culture and treatment. HL-60 cells obtained from American Type Culture Collection (ATCC) were maintained in Iscove's modified DMEM medium (Invitrogen Life Technologies, Carlsbad, Calif.) supplemented with 20% fetal bovine serum (FBS). […] The ratio of Cit H3 positive stained cells to all cells was counted and calculated as mean±SD from three individual experiments.

LPS-induced shock = details: rodent; cited from earlier work
[2] = system: mouse model of CLP-induced septic shock; details: literature reference 10; cited from earlier work
[3] = system: collagen-induced arthritis; details: murine; cited from earlier work
Cit H3 = experiment: Production of Cit H3 after inhibition of PAD activity (data not shown)

| Compound | Survival (in words) [1] | LPS-induced Cit H3 production (ratio of Cit H3 positive cells to all cells) (HL-60 neutrophilic cells; ATRA-differentiated HL-60 cells, with or without SAHA, n=3, P<0.05) | NETs formation after LPS insult (HL-60 neutrophilic cells; HL-60 neutrophilic cells) | Survival (LPS-induced shock) | Survival [2] | Survival ([1]; 80 mg/kg i.p. 1 h after CLP, monitored 10 days, n=10, DMSO vehicle 0%) | Severity of collagen-induced arthritis [3] | Production of Cit H3 (Cit H3) |
| --- | --- | --- | --- | --- | --- | --- | --- | --- |
| O=C(CCCCCCC(=O)Nc1ccccc1)NO [SAHA, suberoylanilide hydroxamic acid] | notably improved long term survival | inhibited H3 citrullination significantly; also recorded: suppresses LPS-induced Cit H3 production | significantly inhibited | significantly improves survival | improves survival |  |  |  |
| NC(=O)[C@H](CCCN=C(N)CCl)NC(=O)c1ccccc1 [Cl-amidine] | notably improved long term survival; also recorded: significantly improved survival |  |  |  |  | 42.5% | reduce the severity | reduce the production of Cit H3 |
